Tests used:
Test in all cases: Test E greenhouse herbicide test, pre- and postemergence
Format in all cases: in vivo
[1] = test system: pigweed, palmer (palmer pigweed, Amaranthus palmeri)
Procedure, shortened: (§1)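 Seeds were sown in silt loam and sprayed preemergence with compound in a non-phytotoxic solvent mix containing surfactant; for postemergence, plants at 2 to 18 cm (1- to 4-leaf stage) in peat-based potting medium were sprayed with the same formulation. After 14 to 21 d in a greenhouse, injury was rated visually against controls (0–100).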

[2] = test system: johnsongrass (Sorghum halepense); details: Preemergence
Procedure, shortened: as §1

corn (Zea mays) = test system: corn (Zea mays)
Procedure, shortened: as §1

[3] = test system: nutsedge, yellow (yellow nutsedge, Cyperus esculentus); details: Preemergence
Procedure, shortened: as §1

[4] = test system: velvetleaf (Abutilon theophrasti); details: Preemergence
Procedure, shortened: as §1

[5] = test system: foxtail, green (green foxtail, Setaria viridis); details: Preemergence
Procedure, shortened: as §1

[6] = test system: lambsquarters (Chenopodium album); details: Preemergence
Procedure, shortened: as §1

[7] = test system: arrowleaf sida (Sida rhombifolia)
Procedure, shortened: as §1

[8] = test system: barnyardgrass (Echinochloa crus-galli)
Procedure, shortened: as §1

soybean (Glycine max) = test system: soybean (Glycine max)
Procedure, shortened: as §1

[9] = test system: momingglory (Ipomoea coccinea); details: Preemergence
Procedure, shortened: as §1

[10] = test system: dayflower (Virginia (VA) dayflower, Commelina virginica)
Procedure, shortened: as §1

[11] = test system: Italian ryegrass (Lolium multiflorum)
Procedure, shortened: as §1

[12] = 62 g ai/ha, Preemergence, scale 0 to 100 (0 no effect, 100 complete control)
[13] = 125 g ai/ha, Preemergence, scale 0 to 100 (0 no effect, 100 complete control)
[14] = Preemergence, 31 g ai/ha, scale 0 to 100, 0 no effect, 100 complete control
[15] = 62 g ai/ha, scale 0 to 100 (0 no effect, 100 complete control)
[16] = 125 g ai/ha, visual, scale 0 no effect to 100 complete control
[17] = Preemergence, 125 g ai/ha, visual, scale 0 no effect to 100 complete control
[18] = 125 g ai/ha, scale 0 to 100 (0 no effect, 100 complete control)
[19] = 31 g ai/ha, scale 0 to 100, 0 no effect, 100 complete control
[20] = 62 g ai/ha, Postemergence, scale 0 to 100 (0 no effect, 100 complete control)
[21] = 125 g ai/ha, Postemergence, scale 0 to 100 (0 no effect, 100 complete control)
[22] = 250 g ai/ha, Postemergence, scale 0 to 100 (0 no effect, 100 complete control)
[23] = Postemergence, 31 g ai/ha, visual, scale 0 no effect to 100 complete control
[24] = Preemergence, 250 g ai/ha, visual, scale 0 no effect to 100 complete control
[25] = 250 g ai/ha, visual, scale 0 no effect to 100 complete control

With `Cc1cc(C)c2ccccc2c1-c1c(O)c(C)nn(C)c1=O` [Compound 21] as the molecule, how does the “Plant response rating, Pigweed, Palmer” value [1, 12] read?
The value was 70.

And the “Plant response rating, Pigweed, Palmer” value [1, 13]?
The value was 98.

What about the “Plant response rating, Pigweed, Palmer” value [1, 14] of the same molecule?
The value was 65.

What about the “Plant response rating, Johnsongrass” value [2, 15] of the same molecule?
Its value is 20.

What about the “Plant response rating, Johnsongrass” value [2, 16] of the same molecule?
Its value is 60.

And the “Plant response rating, Corn” value (corn (Zea mays); [12])?
Its value is 0.

And the “Plant response rating, Corn” value (corn (Zea mays); [14])?
The value was 0.

And the “Plant response rating, Corn” value (corn (Zea mays); [17])?
Its value is 30.

And the “Plant response rating, Nutsedge, Yellow” value [3, 15]?
The value was 75.

What about the “Plant response rating, Nutsedge, Yellow” value [3, 18] of the same molecule?
Its value is 80.

And the “Plant response rating, Nutsedge, Yellow” value [3, 19]?
The value was 0.

What about the “Plant response rating, Velvetleaf” value [4, 15] of the same molecule?
The value was 90.

And the “Plant response rating, Velvetleaf” value [4, 18]?
The value was 90.

What about the “Plant response rating, Velvetleaf” value [4, 19] of the same molecule?
Its value is 80.

And the “Plant response rating, Foxtail, Green” value [5, 15]?
The value was 100.

And the “Plant response rating, Foxtail, Green” value [5, 19]?
The value was 95.

And the “Plant response rating, Foxtail, Green” value [5, 16]?
The value was 100.

What about the “Plant response rating, Lambsquarters” value [6, 15] of the same molecule?
Its value is 100.

What about the “Plant response rating, Lambsquarters” value [6, 19] of the same molecule?
The value was 100.

What about the “Plant response rating, Lambsquarters” value [6, 16] of the same molecule?
The value was 100.

What about the “Plant response rating, Arrowleaf Sida” value [7, 12] of the same molecule?
Its value is 0.

What about the “Plant response rating, Arrowleaf Sida” value [7, 14] of the same molecule?
The value was 0.

What about the “Plant response rating, Arrowleaf Sida” value [7, 17] of the same molecule?
The value was 50.

And the “Plant response rating, Barnyardgrass” value [8, 12]?
Its value is 70.

What about the “Plant response rating, Barnyardgrass” value [8, 14] of the same molecule?
The value was 40.

And the “Plant response rating, Barnyardgrass” value [8, 17]?
Its value is 90.

What about the “Plant response rating, Soybean” value (soybean (Glycine max); [12]) of the same molecule?
The value was 35.

What about the “Plant response rating, Soybean” value (soybean (Glycine max); [13]) of the same molecule?
The value was 35.

And the “Plant response rating, Soybean” value (soybean (Glycine max); [14])?
The value was 35.

And the “Plant response rating, Morningglory” value [9, 15]?
The value was 98.

What about the “Plant response rating, Morningglory” value [9, 18] of the same molecule?
Its value is 100.

What about the “Plant response rating, Morningglory” value [9, 19] of the same molecule?
Its value is 90.

And the “Plant response rating, Dayflower, VA” value [10, 12]?
The value was 60.

And the “Plant response rating, Dayflower, VA” value [10, 14]?
Its value is 80.

What about the “Plant response rating, Dayflower, VA” value [10, 17] of the same molecule?
Its value is 80.

What about the “Plant response rating, Ryegrass, Italian” value [11, 12] of the same molecule?
The value was 100.

What about the “Plant response rating, Ryegrass, Italian” value [11, 13] of the same molecule?
The value was 100.

What about the “Plant response rating, Ryegrass, Italian” value [11, 14] of the same molecule?
Its value is 100.

For `Cc1nn(C)c(=O)c(-c2ccc(Br)c3ccccc23)c1O` [Compound 75], which “Plant response rating, Pigweed, Palmer” value [1, 20] is on record?
The value was 70.

What about the “Plant response rating, Pigweed, Palmer” value [1, 12] of the same molecule?
The value was 85.

What about the “Plant response rating, Pigweed, Palmer” value [1, 21] of the same molecule?
Its value is 100.

What about the “Plant response rating, Pigweed, Palmer” value [1, 13] of the same molecule?
The value was 50.

What about the “Plant response rating, Pigweed, Palmer” value [1, 22] of the same molecule?
The value was 100.

What about the “Plant response rating, Pigweed, Palmer” value [1, 23] of the same molecule?
Its value is 70.

And the “Plant response rating, Pigweed, Palmer” value [1, 14]?
Its value is 30.

What about the “Plant response rating, Pigweed, Palmer” value [1, 24] of the same molecule?
The value was 100.

What about the “Plant response rating, Johnsongrass” value [2, 15] of the same molecule?
Its value is 0.

What about the “Plant response rating, Johnsongrass” value [2, 18] of the same molecule?
The value was 10.

And the “Plant response rating, Johnsongrass” value [2, 19]?
Its value is 0.

And the “Plant response rating, Johnsongrass” value [2, 25]?
Its value is 15.

What about the “Plant response rating, Corn” value (corn (Zea mays); [20]) of the same molecule?
Its value is 0.

And the “Plant response rating, Corn” value (corn (Zea mays); [12])?
The value was 0.

And the “Plant response rating, Corn” value (corn (Zea mays); [21])?
Its value is 0.

And the “Plant response rating, Corn” value (corn (Zea mays); [13])?
The value was 0.

And the “Plant response rating, Corn” value (corn (Zea mays); [22])?
The value was 0.

What about the “Plant response rating, Corn” value (corn (Zea mays); [23]) of the same molecule?
The value was 0.

And the “Plant response rating, Corn” value (corn (Zea mays); [14])?
Its value is 0.

And the “Plant response rating, Corn” value (corn (Zea mays); [24])?
Its value is 35.

What about the “Plant response rating, Nutsedge, Yellow” value [3, 15] of the same molecule?
The value was 10.

And the “Plant response rating, Nutsedge, Yellow” value [3, 18]?
Its value is 70.

And the “Plant response rating, Nutsedge, Yellow” value [3, 19]?
Its value is 0.

And the “Plant response rating, Nutsedge, Yellow” value [3, 25]?
The value was 65.

And the “Plant response rating, Velvetleaf” value [4, 15]?
The value was 85.

What about the “Plant response rating, Velvetleaf” value [4, 18] of the same molecule?
Its value is 100.

And the “Plant response rating, Velvetleaf” value [4, 19]?
Its value is 35.

And the “Plant response rating, Velvetleaf” value [4, 25]?
Its value is 98.

And the “Plant response rating, Foxtail, Green” value [5, 15]?
Its value is 0.

What about the “Plant response rating, Foxtail, Green” value [5, 18] of the same molecule?
Its value is 0.

What about the “Plant response rating, Foxtail, Green” value [5, 19] of the same molecule?
Its value is 0.

What about the “Plant response rating, Foxtail, Green” value [5, 25] of the same molecule?
Its value is 90.

What about the “Plant response rating, Lambsquarters” value [6, 15] of the same molecule?
The value was 100.

What about the “Plant response rating, Lambsquarters” value [6, 18] of the same molecule?
Its value is 100.

What about the “Plant response rating, Lambsquarters” value [6, 19] of the same molecule?
Its value is 100.

What about the “Plant response rating, Lambsquarters” value [6, 25] of the same molecule?
Its value is 100.

And the “Plant response rating, Arrowleaf Sida” value [7, 20]?
Its value is 70.

What about the “Plant response rating, Arrowleaf Sida” value [7, 12] of the same molecule?
Its value is 75.

And the “Plant response rating, Arrowleaf Sida” value [7, 21]?
The value was 80.

And the “Plant response rating, Arrowleaf Sida” value [7, 13]?
Its value is 90.

What about the “Plant response rating, Arrowleaf Sida” value [7, 22] of the same molecule?
The value was 80.

What about the “Plant response rating, Arrowleaf Sida” value [7, 23] of the same molecule?
Its value is 70.

And the “Plant response rating, Arrowleaf Sida” value [7, 14]?
The value was 50.

And the “Plant response rating, Arrowleaf Sida” value [7, 24]?
The value was 98.

What about the “Plant response rating, Barnyardgrass” value [8, 20] of the same molecule?
The value was 30.

And the “Plant response rating, Barnyardgrass” value [8, 12]?
Its value is 20.

What about the “Plant response rating, Barnyardgrass” value [8, 21] of the same molecule?
Its value is 25.

What about the “Plant response rating, Barnyardgrass” value [8, 13] of the same molecule?
The value was 35.

What about the “Plant response rating, Barnyardgrass” value [8, 22] of the same molecule?
Its value is 30.

And the “Plant response rating, Barnyardgrass” value [8, 23]?
The value was 20.

What about the “Plant response rating, Barnyardgrass” value [8, 14] of the same molecule?
The value was 20.

And the “Plant response rating, Barnyardgrass” value [8, 24]?
Its value is 65.

And the “Plant response rating, Soybean” value (soybean (Glycine max); [20])?
Its value is 70.

What about the “Plant response rating, Soybean” value (soybean (Glycine max); [12]) of the same molecule?
Its value is 35.

And the “Plant response rating, Soybean” value (soybean (Glycine max); [21])?
The value was 70.

What about the “Plant response rating, Soybean” value (soybean (Glycine max); [13]) of the same molecule?
Its value is 40.

And the “Plant response rating, Soybean” value (soybean (Glycine max); [22])?
The value was 75.

What about the “Plant response rating, Soybean” value (soybean (Glycine max); [23]) of the same molecule?
The value was 70.

What about the “Plant response rating, Soybean” value (soybean (Glycine max); [14]) of the same molecule?
Its value is 0.

And the “Plant response rating, Soybean” value (soybean (Glycine max); [24])?
The value was 70.

What about the “Plant response rating, Morningglory” value [9, 15] of the same molecule?
Its value is 30.

What about the “Plant response rating, Morningglory” value [9, 18] of the same molecule?
Its value is 60.

What about the “Plant response rating, Morningglory” value [9, 19] of the same molecule?
Its value is 0.

And the “Plant response rating, Morningglory” value [9, 25]?
The value was 100.

What about the “Plant response rating, Dayflower, VA” value [10, 20] of the same molecule?
The value was 50.

And the “Plant response rating, Dayflower, VA” value [10, 12]?
The value was 10.

And the “Plant response rating, Dayflower, VA” value [10, 21]?
Its value is 50.

And the “Plant response rating, Dayflower, VA” value [10, 13]?
The value was 60.

What about the “Plant response rating, Dayflower, VA” value [10, 22] of the same molecule?
The value was 65.

And the “Plant response rating, Dayflower, VA” value [10, 23]?
Its value is 30.

What about the “Plant response rating, Dayflower, VA” value [10, 14] of the same molecule?
Its value is 10.

What about the “Plant response rating, Dayflower, VA” value [10, 24] of the same molecule?
Its value is 75.

What about the “Plant response rating, Ryegrass, Italian” value [11, 20] of the same molecule?
The value was 80.

What about the “Plant response rating, Ryegrass, Italian” value [11, 12] of the same molecule?
The value was 100.

What about the “Plant response rating, Ryegrass, Italian” value [11, 21] of the same molecule?
Its value is 85.

What about the “Plant response rating, Ryegrass, Italian” value [11, 13] of the same molecule?
The value was 100.

And the “Plant response rating, Ryegrass, Italian” value [11, 22]?
Its value is 90.

What about the “Plant response rating, Ryegrass, Italian” value [11, 23] of the same molecule?
The value was 75.

And the “Plant response rating, Ryegrass, Italian” value [11, 14]?
The value was 100.

And the “Plant response rating, Ryegrass, Italian” value [11, 24]?
The value was 100.
